From US6497904B2, “Treatment of oncologic tumors with an injectable formulation of a golgi apparatus disturbing agent” (priority 1998, dated 2002)

Legend:
[1] = test system: Balb/C mice; experiment: Survival of Balb/C mice following treatment (deaths due to toxicity); assay type: in vivo; conditions: Example 3
Source text: Balb/C mice are divided into groups and given treatments according to Table 3. Mice are observed daily for 25 days for deaths due to toxicity.
Balb/C mice are divided into groups and given treatments according to Table 7.

[2] = test system: Erlich tumors; experiment: In vivo efficacy (delay in tumor growth, T/C) in Balb/C mice carrying Erlich tumors
Protocol: For each of the following examples, the pharmaceutical formulations were prepared just prior to use. Various amounts of brefeldin A (mg of drug/kg animal's body weight) were weighed out and varying amounts of solvent was used to mix the drug. The mixtures were either vortexed (mechanical mixing) or sonicated until drug was either completely soluble or only a very small amount appeared to settle in the bottom the test tube. Chitin was then added and the mixture was sonicated.
Six days following inoculation, the mice normally grew a tumor on each flank, ranging in size from 100 to 120 mm^3. The mice (average weight=25 g) were randomized and separated into groups. Each tumor was then measured and the tumor volume calculated and recorded. In experimental groups, one tumor on each mouse was treated with the appropriate agent (drug versus drug in formulation) with an injection volume of 50 ul using a 22G½ needle. The control group was left untreated.
Antitumor activity was determined by inhibition of tumor growth and survival rate. Each tumor was measured two to three times per week. In nude mice, tumors were measured for 10 days or until mice survived. In Balb/C tumors were measured for up to 20 days following treatment. The volume of the tumor was calculated and recorded. Tumor volume data is analyzed by using simple regression model. […]
Balb/C mice are divided into groups and given treatments according to Table 4. Mice are observed daily to evaluate lethal toxicity and tumors are measured on alternate days for 20 days. […]

## C[C@H]1CCC/C=C/[C@@H]2C[C@H](O)C[C@H]2[C@H](O)/C=C/C(=O)O1 [brefeldin A]
[1]; high doses (80 mg/kg and 40 mg/kg) with DMA, groups 4 and 8
  toxicity to mice: most toxic
[1]; when chitin is added to the formulation (with DMA)
  toxicity to mice: less toxicity
[2]; Example 2, groups 5, 6, and 7, given with the solvent (DMA 5-20 μl), no chitin
  T/C ratio of delay in tumor growth: 1.25-1.75
[2]; Example 2, groups 8, 9, and 10, delivered with DMA (5-20 μl) and chitin
  T/C ratio of delay in tumor growth: 2.00-2.75
[2]; Example 4, groups 4, 5, and 6, BFA 2 mg delivered with DMA and chitin
  T/C ratio of delay in tumor growth: 2.50-2.85
[2]; Example 4, groups 7, 8, and 9, decreased dose of brefeldin A (0.5 mg) with DMA and chitin
  T/C ratio of delay in tumor growth: 2.30-2.55
